Assay results from patent US20090142337A1, “Pharmaceutical Combinations of Diazole Derivatives for Cancer Treatment” (Astex Therapeutics Limited, priority 2006, published 2009).

Tests used:
[1] = molecular target: PKA (Homo sapiens, UniProt P17612); conditions: cited from earlier work
[2] = tested on: PKG; conditions: cited from earlier work
[3] = tested on: OVCAR-3 tumour cells; conditions: concentrations of 50 and 100 microM; cited from earlier work
[4] = tested on: CML patients; conditions: CML blast phase; cited from earlier work
[5] = tested on: HCT-116 cell line; assay: Anti-proliferative activity (Alamar Blue assay); format: cell-based, human; conditions: for IC50: Homo sapiens, HCT-116, read-out: HCT-116 cell proliferation IC50
Experimental: The anti-proliferative activities of compounds for use in the combinations of the invention can be determined by measuring the ability of the compounds to inhibition of cell growth in a number of cell lines. […] The method is based on the ability of viable cells to reduce resazurin to its fluorescent product resorufin. […] The number of viable cells is determined by Alamar Blue assay as before. Cell lines can be obtained from the ECACC (European Collection of cell Cultures).

[6] = Determination of oral bioavailability; format: in vivo, balb/c mice; conditions: mice, oral route (5 mg/kg PO vs 1 mg/kg IV)
Experimental: The oral bioavailability of the compounds for use in the combinations of the invention may be determined as follows.
The test compound is administered as a solution both I.V. and orally to balb/c mice at the following dose level and dose formulations; • 1 mg/kg IV formulated in 10% DMSO/90% (2-hydroxypropyl)-β-cyclodextrin (25% w/v); and • 5 mg/kg PO formulated in 10% DMSO/20% water/70% PEG200.
At various time points after dosing, blood samples are taken in heparinised tubes and the plasma fraction is collected for analysis. The analysis is undertaken by LC-MS/MS after protein precipitation and the samples are quantified by comparison with a standard calibration line constructed for the test compound. The area under the curve (AUC) is calculated from the plasma level vs time profile by standard methods. The oral bioavailability as a percentage is calculated from the following equation: […]

[7] = tested on: human tumour derived cell lines; assay: Xenograft studies; format: in vivo, nude mice; conditions: dosed orally
Source text: These biomarkers include suppression of phosphorylation of substrates of the cyclin dependent kinases e.g. retinoblastoma protein.

[8] = Vapour sorption/desorption analysis; format: physicochemical; conditions: 0 to 90% RH stepwise, 25 °C, total upon equilibration at 90% RH
Experimental: Crystals of 4-(2,6-dichlorobenzoylamino)-1H-pyrazole-3-carboxylic acid (1-methanesulphonyl-piperidin-4-yl)-amide prepared by the recrystallisation method of Example 5 Step 8 were subjected to vapour sorption/desorption analysis in order to test for the propensity of this sample to form a hydrated state.
Approximately 20 mg of sample was placed into a wire-mesh vapour sorption balance pan and loaded into an ‘IgaSorp’ vapour sorption balance (Hiden Analytical Instruments) held at 25+/−0.1° C. The sample was then dried by maintaining a 0% humidity environment (using mass flow control apparatus) until no further weight change was recorded. Subsequently, the sample was then subjected to a ramping profile from 0-90% relative humidity (% RH) at 10% RH increments, maintaining the sample at each step until equilibration had been attained (99.5% step completion).
Upon reaching equilibration, the % RH within the apparatus was ramped to the next step and the equilibration procedure repeated. After completion of the sorption cycle, the sample was then dried using the same procedure. The weight change during the sorption/desorption cycles was then monitored, allowing for the hygroscopic nature of the sample to be determined.

[9] = molecular target: CDK2/CyclinA (Homo sapiens, UniProt P24941); assay: Activated CDK2/CyclinA kinase inhibitory activity assay; format: biochemical
Experimental: The reaction is allowed to proceed for 2 to 4 hours before being stopped with an excess of ortho-phosphoric acid (5 μl at 2%). γ^33P-ATP which remains unincorporated into the histone H1 is separated from phosphorylated histone H1 on a Millipore MAPH filter plate. The wells of the MAPH plate are wetted with 0.5% orthophosphoric acid, and then the results of the reaction are filtered with a Millipore vacuum filtration unit through the wells. Following filtration, the residue is washed twice with 200 μl of 0.5% orthophosphoric acid. Once the filters have dried, 20 μl of Microscint 20 scintillant is added, and then counted on a Packard Topcount for 30 seconds.

O=S(=O)(NCCNCC=C(c1ccccc1)c1ccccc1)c1cccc2cnccc12 [NL-71-101]
IC50 [1]: 9 µM
IC50 [2]: 36 µM
apoptosis in OVCAR-3 tumour cells [3]: induced apoptosis

Cc1ccc(NC(=O)c2ccc(CN3CCN(C)CC3)cc2)cc1Nc1nccc(-c2cccnc2)n1 [imatinib]
duration of remissions [4]: 2-6 months

CS(=O)(=O)N1CCC(NC(=O)c2n[nH]cc2NC(=O)c2c(Cl)cccc2Cl)CC1 [Example 1, 4-(2,6-dichloro-benzoylamino)-1H-pyrazole-3-carboxylic acid (1-methanesulphonyl-piperidin-4-yl)-amide]
more potent anti-proliferative effect on human colon cancer HCT-116 cell line compared to difluoro-analogue [5]: 6-7 fold
IC50 [5]: 0.11 µM
bioavailability ([6]; balb/c, mouse, plasma, oral, 5 mg/kg): 40 to 50%
oral bioavailability [6]: 30-100%
tumour biomarkers (phosphorylation of CDK substrates e.g. retinoblastoma protein) [7]: inhibition of the tumour biomarkers
tumour growth in xenografts ([7]; xenografts implanted sub-cutaneously): inhibition of tumour growth
weight increase on vapour sorption [8]: 0.24%

CS(=O)(=O)N1CCC(NC(=O)c2n[nH]cc2NC(=O)c2c(F)cccc2F)CC1 [reference compound]
selectivity for CDK inhibition over GSK3β [9]: ~6 fold
IC50 [5]: 0.74 µM
